From patent US20160214918A1, “COMPOSITION FOR TREATING METABOLIC SYNDROME AND A PREPARATION METHOD THEREOF” (Kaohsiung Medical University, priority 2015, published 2016) come the findings set out here.

In one data set the test system is fat cells. Nature of the data set: cellular toxicity in fat cells. The data set is classed as cell-based. Conditions: FIG. 6A, drug 30 ug/mL.
The next data set relates to mature fat cells. Nature of the data set: glucose consumption rate of fat cells in culture medium. The data set is classed as cell-based. Conditions: 24 hours, control group about 20%. From the text: Please refer to FIGS. 6A-6C. FIGS. 6A-6C show the results of the activity of the glucose consumption rate of fat cells in the culture medium. As shown in FIGS. 6A-6C, various compounds containing halogens, such as chlorine, bromine and iodine, can increase the glucose consumption rate of fat cells. Many of the deuterium-containing compounds are new ones in this example. […] Symbol ‘Con’ denotes the Control Group, Symbol ‘5’ denotes a 2Br2H compound, Symbol ‘6’ denotes a 2I2H compound, Symbol ‘Met’ denotes a metformin, Symbol ‘AI’ denotes an AMPK inhibitor, Symbol ‘L’ denotes a low-dose usage of 15 ug/mL, and Symbol ‘H’ denotes a high-dose usage of 30 ug/mL
The activity of the glucose consumption rate of fat cells is taken from the following: A testing drug, 2,3-dideutero-1-(2-iodophenyl)-3-(4-methoxyphenyl)propan-1-one with the concentration 30 ug/mL, was cultured with mature fat cells for 24 hours. It was then tested to determine the change of the glucose concentration in the culture medium.
24 hours after the replacement of a culture media, the glucose consumption rate of the control group was about 20%. After insulin was added, the glucose consumption rate of the cells in the control group upgrades to 30%. With the commercial drug, Pioglitazone of 30 ug/mL, the glucose consumption rate of the cells in the corresponding group increased to 40%.

With `[2H]C(C(=O)c1ccccc1I)C([2H])c1ccc(OC)cc1` (centres unmarked) [2I1D, 2,3-dideutero-1-(2-iodophenyl)-3-(4-methoxyphenyl)propan-1-one], the cellular toxicity result in the data set with fat cells was “no visible cellular toxicity”.

In the case of `COc1ccc(/C=C/C(=O)c2ccccc2I)cc1` [2I2H, (E)-1-(2-iodophenyl)-3-(4-methoxyphenyl)prop-2-en-1-one], the cellular toxicity entry in the data set with fat cells is given as “no visible cellular toxicity”.

Take `COc1ccc(C#CC(=O)c2ccccc2I)cc1` [2I3, 1-(2-iodophenyl)-3-(4-methoxyphenyl)prop-2-yn-1-one]: the cellular toxicity entry with fat cells is “significant cellular toxicity”.

Take `CCc1ccc(CCOc2ccc(CC3SC(=O)NC3=O)cc2)nc1` (centres unmarked) [Pioglitazone, reference compound]: in the data set on mature fat cells (mature fat cells, drug 30 ug/mL), the “glucose consumption rate of the cells” value is 40%.

Turning to “insulin: insulin added to fat cells as a positive control”, the “glucose consumption rate of the cells” value with mature fat cells (fat cells, after insulin was added) amounted to 30%.
